As usually defined, the EC50 is the concentration needed to bring the measured effect to its halfway point.

The values below come from patent US9290451B2 (Hoffmann-La Roche Inc., priority 2011, dated 2016).

The target of one assay is human CB2 receptors (Homo sapiens (Human), UniProt P34972). The assay is described as follows: cAMP assay, CHO cells expressing human CB2 receptors. Format: cell-based. Put shortly:
(§1)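 EC50 values come from a TR-FRET cAMP read-out (standard curve 10 μM–0.13 nM cAMP) after 30 min compound exposure at 30 °C in IBMX (1 mM)-containing Krebs Ringer bicarbonate buffer, using CHO cells carrying human CB1 or CB2 receptors.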
On the technique in general: Changes in cAMP serve as a functional read-out for many G protein-coupled receptors.

The target of another assay is human CB1 receptors (Homo sapiens (Human), UniProt P21554). Kind of assay: cAMP assay, CHO cells expressing human CB1 receptors. Format: cell-based. The gist of the method: as §1
The mark [1] stands for this setting: CHO cells expressing human CB2, cAMP, read-out: human CB2 EC50.
Setting [2] is: CHO cells expressing human CB1, cAMP, read-out: human CB1 EC50.

Where two headings read alike, the source gives them in different places.

Sequence of human CB2 receptors (P34972 whole entry): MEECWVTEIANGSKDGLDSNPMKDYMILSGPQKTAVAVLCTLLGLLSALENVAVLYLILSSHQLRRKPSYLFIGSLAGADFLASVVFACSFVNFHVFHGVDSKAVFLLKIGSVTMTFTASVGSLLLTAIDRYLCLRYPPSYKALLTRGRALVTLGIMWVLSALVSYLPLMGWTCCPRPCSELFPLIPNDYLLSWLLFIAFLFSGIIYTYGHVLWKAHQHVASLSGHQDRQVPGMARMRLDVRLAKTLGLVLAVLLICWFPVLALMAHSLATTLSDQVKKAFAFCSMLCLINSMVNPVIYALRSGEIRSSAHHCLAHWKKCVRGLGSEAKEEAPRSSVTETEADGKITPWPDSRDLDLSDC
Sequence of human CB1 receptors (P21554 whole entry): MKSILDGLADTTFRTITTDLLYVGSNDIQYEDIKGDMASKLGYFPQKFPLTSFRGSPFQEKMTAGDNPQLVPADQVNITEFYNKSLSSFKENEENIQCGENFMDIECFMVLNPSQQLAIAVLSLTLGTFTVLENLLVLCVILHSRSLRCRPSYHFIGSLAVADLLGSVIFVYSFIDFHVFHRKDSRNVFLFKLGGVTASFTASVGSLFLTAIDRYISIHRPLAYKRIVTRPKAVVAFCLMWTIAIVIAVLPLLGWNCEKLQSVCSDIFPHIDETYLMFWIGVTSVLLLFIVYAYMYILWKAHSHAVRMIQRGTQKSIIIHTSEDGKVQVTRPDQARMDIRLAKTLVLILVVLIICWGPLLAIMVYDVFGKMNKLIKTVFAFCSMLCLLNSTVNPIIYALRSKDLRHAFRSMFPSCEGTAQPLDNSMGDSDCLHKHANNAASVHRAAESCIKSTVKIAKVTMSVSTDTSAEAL

`CCC(CC)(NC(=O)c1ccc(C(F)(F)F)c(OCC2CCCO2)n1)C(=O)N(C)C` (stereo not shown) [Example 264, 6-(Tetrahydro-furan-2-ylmethoxy)-5-trifluoromethyl-pyridine-2-carboxylic acid (1-dimethylcarbamoyl-1-ethyl-propyl)-amide]: the 50% effective concentration (EC50) at human CB2 receptors (setting [1]) was 2.7 nM; at human CB1 receptors (setting [2]), 602 nM.

As to `CCOC(=O)C(CC)(CC)NC(=O)c1ccc(Br)c(OCC2CC2)n1` [Example 265, 2-[(5-Bromo-6-cyclopropylmethoxy-pyridine-2-carbonyl)-amino]-2-ethyl-butyric acid ethyl ester], the 50% effective concentration (EC50) on human CB2 receptors (setting [1]) is 2.8 nM; at human CB1 receptors (setting [2]), more than 10000 nM.

For the compound `CCOC(=O)C(CC)(CC)NC(=O)c1ccc(N2CC(F)(F)C2)c(OCC2CC2)n1` [Example 266, 2-{[6-Cyclopropylmethoxy-5-(3,3-difluoro-azetidin-1-yl)-pyridine-2-carbonyl]-amino}-2-ethyl-butyric acid ethyl ester], the EC50 was found to be 2 nM at human CB2 receptors (setting [1]) and 1300 nM on human CB1 receptors (setting [2]).

With `Cc1nc(C(C)(C)NC(=O)c2cccc(-c3ccc(Cl)c(F)c3)n2)no1` [Example 267, 6-(4-Chloro-3-fluoro-phenyl)-pyridine-2-carboxylic acid [1-methyl-1-(5-methyl-[1,2,4]oxadiazol-3-yl)-ethyl]-amide], the EC50 is 26.4 nM at human CB2 receptors (setting [1]) and more than 10000 nM on human CB1 receptors (setting [2]).

For `Cc1nc(C(C)(C)NC(=O)c2cccc(-c3ccc(F)c(Cl)c3)n2)no1` [Example 268, 6-(3-Chloro-4-fluoro-phenyl)-pyridine-2-carboxylic acid [1-methyl-1-(5-methyl-[1,2,4]oxadiazol-3-yl)-ethyl]-amide], the concentration for a half-maximal effect (EC50) at human CB2 receptors (setting [1]) came to 8.7 nM; on human CB1 receptors (setting [2]), 337 nM.

Take `CCC(CC)(NC(=O)c1ccc(N2CC(F)(F)C2=O)c(OCC2CC2)n1)C(=O)OC` [Example 269, 2-{[6-Cyclopropylmethoxy-5-(3,3-difluoro-2-oxo-azetidin-1-yl)-pyridine-2-carbonyl]-amino}-2-ethyl-butyric acid methyl ester]: the concentration for a half-maximal effect (EC50) on human CB2 receptors (setting [1]) was 47.3 nM; at human CB1 receptors (setting [2]), more than 10000 nM.

Consider `COC(=O)[C@H](CC(C)C)NC(=O)c1ccc(C2CC2)c(OCC2CC2)n1` [Example 270, (S)-2-[(5-Cyclopropyl-6-cyclopropylmethoxy-pyridine-2-carbonyl)-amino]-4-methyl-pentanoic acid methyl ester], for which the EC50 was 1.3 nM on human CB2 receptors (setting [1]) and 91.4 nM on human CB1 receptors (setting [2]).

Take `CC(C)CC(C#N)NC(=O)c1ccc(N2CC(F)(F)C2)c(OCC2CC2)n1` (stereo not shown) [Example 271, 6-Cyclopropylmethoxy-5-(3,3-difluoro-azetidin-1-yl)-pyridine-2-carboxylic acid (1-cyano-3-methyl-butyl)-amide]: the 50% effective concentration (EC50) was 7.9 nM on human CB2 receptors (setting [1]) and more than 10000 nM on human CB1 receptors (setting [2]).

With `Cc1nc(C(CC(C)C)NC(=O)c2ccc(N3CC(F)(F)C3)c(OCC3CC3)n2)no1` (stereo not shown) [Example 272, 6-Cyclopropylmethoxy-5-(3,3-difluoro-azetidin-1-yl)-pyridine-2-carboxylic acid [3-methyl-1-(5-methyl-[1,2,4]oxadiazol-3-yl)-butyl]-amide], the EC50 on human CB2 receptors is 4.3 nM; on human CB1 receptors, more than 10000 nM.

As for `CC(C)CC(C)(CO)NC(=O)c1ccc(N2CC(F)(F)C2)c(OCC2CC2)n1` (stereo not shown) [Example 273, 6-Cyclopropylmethoxy-5-(3,3-difluoro-azetidin-1-yl)-pyridine-2-carboxylic acid (1-hydroxymethyl-1,3-dimethyl-butyl)-amide], the values for the half-maximal effective concentration (EC50) on human CB2 receptors and on human CB1 receptors were 5.4 nM and 1250 nM, respectively.

For the compound `CCC(CC)(NC(=O)c1ccc(C2CC2)c(OCC2CC2)n1)C(=O)N1CCC1` [Example 274, 5-Cyclopropyl-6-cyclopropylmethoxy-pyridine-2-carboxylic acid [1-(azetidine-1-carbonyl)-1-ethyl-propyl]-amide], the EC50 was found to be 1.6 nM on human CB2 receptors (setting [1]) and 351 nM at human CB1 receptors (setting [2]).

For the compound `CCC(CC)(NC(=O)c1ccc(C2CC2)c(OCC2CC2)n1)C(=O)NCCOC` [Example 275, 5-Cyclopropyl-6-cyclopropylmethoxy-pyridine-2-carboxylic acid [1-ethyl-1-(2-methoxy-ethylcarbamoyl)-propyl]-amide], the EC50 at human CB2 receptors (setting [1]) is 51.8 nM; at human CB1 receptors (setting [2]), more than 10000 nM.

As to `CCN(C)C(=O)C(CC)(CC)NC(=O)c1ccc(C2CC2)c(OCC2CC2)n1` [Example 276, 5-Cyclopropyl-6-cyclopropylmethoxy-pyridine-2-carboxylic acid [1-ethyl-1-(ethyl-methyl-carbamoyl)-propyl]-amide], the results for the EC50 at human CB2 receptors (setting [1]) and on human CB1 receptors (setting [2]) were 24.6 nM and more than 10000 nM, respectively.

As for `CC(C)C[C@H](NC(=O)c1cccc(Cc2ccc(F)cc2)n1)C(N)=O` [Example 277, 6-(4-Fluoro-benzyl)-pyridine-2-carboxylic acid ((S)-1-carbamoyl-3-methyl-butyl)-amide], the half-maximal effective concentration (EC50) was 16.6 nM on human CB2 receptors (setting [1]) and 1700 nM at human CB1 receptors (setting [2]).

Turning to `O=C(N[C@H](c1ccccn1)C(F)(F)F)c1cccc(Cc2ccc(F)cc2)n1` [Example 278, 6-(4-Fluoro-benzyl)-pyridine-2-carboxylic acid ((R)-2,2,2-trifluoro-1-pyridin-2-yl-ethyl)-amide], the 50% effective concentration (EC50) amounted to 20.2 nM on human CB2 receptors (setting [1]) and 357 nM at human CB1 receptors (setting [2]).

As to `CC(C)[C@@](C)(CO)NC(=O)c1ccc(C2CC2)c(OCC2CC2)n1` [Example 279, 5-Cyclopropyl-6-cyclopropylmethoxy-pyridine-2-carboxylic acid ((S)-1-hydroxymethyl-1,2-dimethyl-propyl)-amide], the EC50 was 23 nM at human CB2 receptors (setting [1]) and more than 10000 nM on human CB1 receptors (setting [2]).

For the compound `CC1(COc2nc(C(=O)NC(C)(C)c3nccs3)ccc2Br)COC1` [Example 280, 5-Bromo-6-(3-methyl-oxetan-3-ylmethoxy)-pyridine-2-carboxylic acid (1-methyl-1-thiazol-2-yl-ethyl)-amide], the EC50 at human CB2 receptors (setting [1]) amounted to 118 nM; on human CB1 receptors (setting [2]) it was 1490 nM.

With `CC1(COc2nc(C(=O)NC3(c4nccs4)COC3)ccc2Br)COC1` [Example 281, 5-Bromo-6-(3-methyl-oxetan-3-ylmethoxy)-pyridine-2-carboxylic acid (3-thiazol-2-yl-oxetan-3-yl)-amide], the EC50 on human CB2 receptors (setting [1]) was 447 nM; on human CB1 receptors (setting [2]), more than 10000 nM.

Turning to `O=C(NC1(c2nccs2)COC1)c1ccc(Br)c(OCC(F)(F)F)n1` [Example 282, 5-Bromo-6-(2,2,2-trifluoro-ethoxy)-pyridine-2-carboxylic acid (3-thiazol-2-yl-oxetan-3-yl)-amide], the concentration for a half-maximal effect (EC50) was 368 nM on human CB2 receptors (setting [1]) and more than 10000 nM on human CB1 receptors (setting [2]).

For the compound `CC1(COc2nc(C(=O)NC(c3ccccn3)C(F)(F)F)ccc2Br)COC1` (stereo not shown) [Example 283, 5-Bromo-6-(3-methyl-oxetan-3-ylmethoxy)-pyridine-2-carboxylic acid (2,2,2-trifluoro-1-pyridin-2-yl-ethyl)-amide], the concentration for a half-maximal effect (EC50) at human CB2 receptors (setting [1]) is 109 nM; on human CB1 receptors (setting [2]), more than 10000 nM.

Turning to `CCC(CC)(NC(=O)c1ccc(C2CC2)c(OCC2CC2)n1)C(=O)NCC1CC1` [Example 284, 5-Cyclopropyl-6-cyclopropylmethoxy-pyridine-2-carboxylic acid [1-(cyclopropylmethyl-carbamoyl)-1-ethyl-propyl]-amide], the EC50 was 27 nM on human CB2 receptors (setting [1]) and more than 10000 nM on human CB1 receptors (setting [2]).

For the compound `CC(C)(NC(=O)c1ccc(C2CC2)c(OCC2CC2)n1)c1ccccn1` [Example 285, 5-Cyclopropyl-6-cyclopropylmethoxy-pyridine-2-carboxylic acid (1-methyl-1-pyridin-2-yl-ethyl)-amide], the EC50 is 31.6 nM at human CB2 receptors (setting [1]) and 703 nM on human CB1 receptors (setting [2]).

On to `CNC(=O)[C@H](CC(C)(C)C)NC(=O)c1cccc(Cc2ccc(F)cc2)n1` [Example 286, 6-(4-Fluoro-benzyl)-pyridine-2-carboxylic acid ((S)-3,3-dimethyl-1-methylcarbamoyl-butyl)-amide], for which the half-maximal effective concentration (EC50) at human CB2 receptors (setting [1]) was determined as 8.2 nM; on human CB1 receptors (setting [2]), 1870 nM.

For the compound `CCC(CC)(NC(=O)c1ccc(C2CC2)c(OCC2CC2)n1)C(=O)N1CC(F)(F)C1` [Example 287, 5-Cyclopropyl-6-cyclopropylmethoxy-pyridine-2-carboxylic acid [1-(3,3-difluoro-azetidine-1-carbonyl)-1-ethyl-propyl]-amide], the results for the EC50 at human CB2 receptors (setting [1]) and on human CB1 receptors (setting [2]) were 3.6 nM and more than 10000 nM, respectively.

Take `CC(C)(NC(=O)c1ccc(N2CC(F)(F)C2)c(OCC(F)(F)F)n1)c1nccs1` [Example 288, 5-(3,3-Difluoro-azetidin-1-yl)-6-(2,2,2-trifluoro-ethoxy)-pyridine-2-carboxylic acid (1-methyl-4-thiazol-2-yl-ethyl)-amide]: the EC50 at human CB2 receptors (setting [1]) is 163 nM; on human CB1 receptors (setting [2]), more than 10000 nM.

For `CCOC(=O)C(CC)(CC)NC(=O)c1ccc(N2CCCC2)c(OCC2CC2)n1` [Example 289, 2-[(6-Cyclopropylmethoxy-5-pyrrolidin-1-yl-pyridine-2-carbonyl)-amino]-2-ethyl-butyric acid ethyl ester], the 50% effective concentration (EC50) came to 1.4 nM on human CB2 receptors (setting [1]) and 234 nM on human CB1 receptors (setting [2]).

For the compound `CN1CC(NC(=O)c2ccc(N3CC(F)(F)C3)c(OCC3CC3)n2)CC1=O` (stereo not shown) [Example 290, 6-Cyclopropylmethoxy-5-(3,3-difluoro-azetidin-1-yl)-pyridine-2-carboxylic acid (1-methyl-5-oxo-pyrrolidin-3-yl)-amide], the EC50 on human CB2 receptors (setting [1]) is 846 nM; at human CB1 receptors (setting [2]), more than 10000 nM.

`CCC(CC)(NC(=O)c1ccc(N2CCCC2)c(OCC2CC2)n1)C(=O)O` [Example 291, 2-[(6-Cyclopropylmethoxy-5-pyrrolidin-1-yl-pyridine-2-carbonyl)-amino]-2-ethyl-butyric acid]: the figures for the EC50 on human CB2 receptors (setting [1]) and on human CB1 receptors (setting [2]) were 413 nM and more than 10000 nM, respectively.

For `O=C(NC1CCS(=O)(=O)C1)c1ccc(N2CC(F)(F)C2)c(OCC2CC2)n1` (stereo not shown) [Example 292, 6-Cyclopropylmethoxy-5-(3,3-difluoro-azetidin-1-yl)-pyridine-2-carboxylic acid (1,1-dioxo-tetrahydro-1λ^6-thiophen-3-yl)-amide], the 50% effective concentration (EC50) at human CB2 receptors (setting [1]) was 874 nM; on human CB1 receptors (setting [2]), more than 10000 nM.
